Measured values published in US20220170119A1, “Signaling Pathway of Cannabidiol (CBD) for Prevention and Treatment of COVID-19” (Hemix Biotech Limited, priority 2020, published 2022).

Legend:
[1] = tested on: wild type MEFs; assay: Proliferation rate (population doubling level) of wild type MEFs; assay type: cell-based, mouse
Experimental: (§1) In the step of determining cells' proliferation rate and the optimal concentration of molecules, the primary mouse embryonic fibroblasts (MEFs) at passage 3 were counted by using LUNA-II Automated Cell Counter. 1.0×10^5 cells were seeded to a well of 6-well plate. The cells were treated with DMSO as control, 10 μM or 50 μM CBD.
(§2) Referring to FIG. 2, after 4-day and 8-day treatment, the cells were counted again using automated cell counter. The population doubling level (PDL), which reflects the proliferation rate of cells, was calculated by the formula: n=3.32 (log UCY−log I)+X, where n=the PDL number, UCY=the cell yield at that time point, I=the initial cell number, and X=the doubling level of the cells used to initiate the subculture being quantitated.

[2] = tested on: Lamin A 609 MEFs; assay: Proliferation rate (population doubling level) of Lamin A 609 MEFs; assay type: cell-based, mouse
Experimental: as §1, §2

[3] = tested on: TRIB3; assay: RNA sequencing of TRIB3 expression in wild type MEFs; assay type: cell-based, mouse; conditions: wild type MEFs receiving CBD treatment
Experimental: (§3) RNA sequencing is carried out wherein the RNA samples were extracted using TRIzol and kept in 75% ethanol in diethylpyrocarbonate (DEPC) water at −20° C. For each condition, two biological replicates were prepared for RNA sequencing. The RNA samples were dissolved in DEPC water and carried out quality control analysis. The RNA quantitation was done using Nanodrop™ and Agilent® 2100 Bioanalyzer. The RNA integrity was measured using Agilent® 2100 Bioanalyzer. The RNA purity was measured using agarose gel electrophoresis and Agilent® 2100 Bioanalyzer.
(§4) The samples that had concentration over 50 ng/μl for volume over 20 μl, RIN value over 6.3, and OD260/280 value over 2.0 were considered to pass the quality control analysis and were used for RNA sequencing. Illumina sequencing system was used for paired-end reads of read lengths PE150. 6 GB of raw data was acquired from each sample. […]
(§5) In the step of RNA sequencing, the RNA samples were extracted using TRIzol and kept in 75% ethanol in diethylpyrocarbonate (DEPC) water at −20° C. […] The RNA quantitation was done using Nanodrop™ and Agilent® 2100 Bioanalyzer. The RNA integrity was measured using Agilent® 2100 Bioanalyzer. The RNA purity was measured using agarose gel electrophoresis and Agilent® 2100 Bioanalyzer. […]

[4] = tested on: TRIB3; assay: RNA sequencing of TRIB3 expression in Lamin A 609 MEFs; assay type: cell-based, mouse; conditions: premature aging Lamin A 609 MEFs, CBD treatment
Experimental: as §3, §4, §5

[5] = tested on: nCoV virus; assay: nCoV infection of Huh7 cells, qPCR of viral gene copy number; assay type: cell-based
Experimental: (§6) To examine CBD inhibitory effects on nCoV infection, Huh7 cells were chosen. 2.0×10^5 cells/well of Huh7 cells were seeded to 24-well plate. The Huh7 cells were treated with DMSO as control, 2.5 μM, 5 μM or 10 μM CBD for 1 hour. The Huh7 cells were then infected with 0.01 MOI of nCoV virus for 1 hour. The inoculum was discarded and the plate was washed with 1 mL PBS twice. The Huh7 cells were then cultured in DMEM/F-12 and treated with DMSO as control, 2.5 μM, 5 μM or 10 μM CBD. After 2, 24 and 48 hours after infection, the supernatant and cell lysate were collected for qPCR analysis for determination of viral gene copy number.
as §6, with “In the step of examining CBD” for “To examine CBD”, “nCoV infection in” for “nCoV infection,”, “Huh7 cells,” for “Huh7 cells were chosen.”

[6] = tested on: SARS-Cov-2 pseudovirus; assay: Luciferase assay of SARS-Cov-2 pseudovirus infection of Caco2 cells; assay type: cell-based
[7] = tested on: Caco-2 cells; assay: Proliferation rate (PDL) of Caco-2 cells; assay type: cell-based, human; conditions: 5 μM CBD
Experimental: Referring to FIG. 8, which shown the proliferation rate of Caco-2 cells with CBD treatment. We have compared the population doubling level (PDL) of Caco-2 cells with CBD treatment at four different concentration, namely, 0 μM CBD, 5 μM CBD, 10 μM CBD, and 20 μM CBD. […] Therefore, the COVID-19 virus suppression effect observed in FIG. 7 was not caused by toxicity of CBD.

[8] = tested on: Caco2 cells; assay: KI67 expression in Caco2 cells; assay type: cell-based, human; conditions: 5 μM CBD
Experimental: Referring to FIG. 9, to confirm that the COVID-19 virus suppression effect observed in FIG. 7 was not caused by toxicity of CBD, we have analyzed the expression of KI67 with CBD treatment at the concentration of 5 μM CBD. […] It is confirmed that the COVID-19 virus suppression effect observed in FIG. 7 was not caused by toxicity of CBD.

[9] = tested on: TRIB3; assay: TRIB3 expression level in Caco-2 cells (FIG. 10); assay type: cell-based, human; conditions: Caco2 cells, CBD treatment (FIG. 10)
From the text: (§7) Referring to FIG. 10, we have further analyzed the mechanism of CBD treatment on Caco-2 cells by comparing the expression level of TRIB3 and AFT5 in Caco-2 cells by the CBD treatment. […] Similarly, ATF5 was also identified by the RNA sequencing results and it is closely associated with TRIB3.

[10] = tested on: ATF5; assay: ATF5 expression level in Caco-2 cells (FIG. 10); assay type: cell-based, human; conditions: Caco2 cells, CBD treatment (FIG. 10)
From the text: as §7

[11] = tested on: TRIB3; assay: TRIB3 expression in Caco2 cells by immunofluorescence staining (FIG. 11); assay type: cell-based, human; conditions: 5 μM CBD (FIG. 11)
From the text: (§8) Referring to FIG. 11, we have further analyzed the mechanism of CBD treatment on Caco-2 cells by comparing the expression level of TRIB3 and AFT5 in Caco2 cells by the CBD treatment. Compared to FIG. 10, we have measured the expression of TRIB3 and AFT5 by immunofluorescence staining.

[12] = tested on: ATF5; assay: ATF5 expression in Caco2 cells by immunofluorescence staining (FIG. 11); assay type: cell-based, human; conditions: 5 μM CBD (FIG. 11)
From the text: as §8

[13] = tested on: SARS-CoV-2; assay: qPCR of viral gene copy in SARS-CoV-2 infected golden hamster; assay type: in vivo
From the text: Referring to FIG. 12, we tested the CBD's anti-COVID-19 effects in nasal turbinate of golden hamster by qPCR analysis of viral gene copy in nasal turbinate of SARS-CoV-2 infected golden hamster upon CBD treatment.

[14] = tested on: lung fibrosis; assay: Masson Trichrome staining of Covid-19 infected golden hamster lung; assay type: in vivo; conditions: lung of Covid-19 infected golden hamster, compared to control
From the text: Referring to FIG. 14, we have further tested CBD's anti-COVID-19 effects by analysis of Masson Trichrome staining of Covid-19 infected golden hamster lung treated with control or CBD.

[15] = tested on: LMNA^G609G/G609G mice; assay: CBD treatment in LMNA G609G/G609G mice (health span); assay type: in vivo, mouse; conditions: IP twice a week
Experimental: CBD was dissolved in 5% DMSO and 5% polyethylene glycol (PEG) in sterile saline and stored at −80° C. for up to 1 month. 2 months old LMNA^G609G/G609G mice were selected used. The mice then received an intraperitoneal injection (IP) twice a week until they reached the humane point.
In step of CBD treating in mice, 2 months old LMNA^G609G/G609G mice were selected and used. They received an intraperitoneal injection (IP) twice a week until they reached the humane point. Different dosages were used for the injection; 50 mg/kg of CBD was identified as the optimal dosage with the greatest extend in health span of the treated mice. CBD was dissolved in 5% DMSO and 5% polyethylene glycol (PEG) in sterile saline and stored at −80° C. for up to 1 month.

[16] = tested on: Covid-19; conditions: human, in vivo; cited from earlier work

Compound: C=C(C)[C@@H]1CCC(C)=C[C@H]1c1c(O)cc(CCCCC)cc1O [CBD, Cannabidiol]
- population doubling level (PDL) ([1]; high dosage 50 μM CBD): significantly decreased
- population doubling level (PDL) ([1]; optimal dosage 10 μM CBD): significantly increased
- population doubling level (PDL) ([2]; high dosage 50 μM CBD): significantly decreased
- population doubling level (PDL) ([2]; optimal dosage 10 μM CBD): significantly increased
- TRIB3 expression (fpkm, RNA sequencing) [3]: upregulated
- expression levels of TRIB3 (RNA sequencing) [4]: increase
- nCoV virus infection (viral gene copy number in cell lysate and supernatant) ([5]; Huh7 cells, 2.5, 5 or 10 μM CBD, 0.01 MOI, 2, 24 and 48 hours after infection): inhibited
- optimal dosage of CBD ([5]; Huh7 cells, inhibition of nCoV infection): 5 µM
- reduction of SARS-Cov-2 pseudovirus infection [6]: 72%
- proliferation of Caco-2 cells shown by population doubling level (PDL) [7]: didn't affect proliferation
- proliferation of Caco2 cells shown by KI67 [8]: didn't affect proliferation
- expression level of TRIB3 [9]: significantly upregulate
- expression level of ATF5 [10]: significantly upregulate
- TRIB3 level of expression, immunofluorescence staining [11]: increased
- ATF5 level of expression, immunofluorescence staining [12]: increased
- SARS-Cov-2 infection (viral gene copy) in lung ([13]; lung): suppress
- SARS-CoV-2 infection (viral gene copy) in nasal turbinate ([13]; nasal turbinate): reduced
- area and intensity of blue stain (fibrosis), Masson Trichrome staining [14]: significantly lowered
- optimal dosage with the greatest extend in health span [15]: 50 mg/kg

Compound: NC(=O)c1nc(F)c[nH]c1=O [Favipiravir]
- efficacy in treating COVID-19 [16]: not conclusive

Compound: Ivermectin
- efficacy in treating COVID-19 [16]: not conclusive

Compound: Lopinavir-ritonavir
- efficacy in treating COVID-19 [16]: not conclusive
